The assay concerns HT29 cells. The assay is described as follows: Inhibition of cell necrosis (CCK8 method), induced programmed necrosis of HT29 cells. The class given is cell-based. To be noted: Homo sapiens, HT-29; rescue from necrosis induced by TNF-α 20 ng/mL, AT-406 1 μM, Z-VAD-FMK 20 μM; 16-20 hours; CCK-8, OD 450 nm. In a few lines: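 HT29 cells in McCOY's 5A with 10% FBS were pre-treated for 30 min with compound (9 fourfold steps, 25000 to 0.38 nM final, 0.25% DMSO). Necrosis was then induced with TNF-α 20 ng/mL, AT-406 1 μM and Z-VAD-FMK 20 μM for 16-20 h. Viability was read by CCK-8 OD450, normalized between uninduced and induced wells, and IC50 was curve-fitted.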
(In general: Tetrazolium assays rely on reduction of a dye to a coloured formazan, in cell work by metabolically active cells.)
With `O=C(Nc1cc(-c2cc(OCC3CCOCC3)ccc2C(F)(F)F)ccn1)c1nnc(Cc2ccccc2)[nH]1` [Example 299, 5-benzyl-N-(4-(5-((tetrahydro-2H-pyran-4-yl)methoxy)-2-(trifluoromethyl)phenyl)pyridin-2-yl)-4H-1,2,4-triazole-3-carboxamide], the IC50 (as a rule, the concentration that gives 50% inhibition) was not above 100 nM.

`O=C(Nc1cc(-c2cc(OCC3CCOCC3)ccc2C(F)(F)F)ccn1)c1nnc(Cc2ccccc2F)[nH]1` [Example 300, 5-(2-fluorobenzyl)-N-(4-(5-((tetrahydro-2H-pyran-4-yl)methoxy)-2-(trifluoromethyl)phenyl)pyridin-2-yl)-4H-1,2,4-triazole-3-carboxamide] gave an IC50 not above 100 nM.

For `O=C(Nc1cc(-c2cc(OCC3CCOCC3)ccc2C(F)(F)F)ccn1)c1nnc(Cc2cccc(F)c2)[nH]1` [Example 301, 5-(3-fluorobenzyl)-N-(4-(5-((tetrahydro-2H-pyran-4-yl)methoxy)-2-(trifluoromethyl)phenyl)pyridin-2-yl)-4H-1,2,4-triazole-3-carboxamide], the IC50 is not above 100 nM.

As to `O=C(Nc1cc(-c2cc(OCC3CCOCC3)ccc2C(F)(F)F)ccn1)c1nnc(Cc2ccc(F)cc2)[nH]1` [Example 302, 5-(4-fluorobenzyl)-N-(4-(5-((tetrahydro-2H-pyran-4-yl)methoxy)-2-(trifluoromethyl)phenyl)pyridin-2-yl)-4H-1,2,4-triazole-3-carboxamide], the IC50 is not above 100 nM.

In the case of `O=C(Nc1cc(-c2cc(OCC3CCOCC3)ccc2C(F)(F)F)ccn1)c1nnc(CC2CCCC2)[nH]1` [Example 303, 5-(cyclopentylmethyl)-N-(4-(5-((tetrahydro-2H-pyran-4-yl)methoxy)-2-(trifluoromethyl)phenyl)pyridin-2-yl)-4H-1,2,4-triazole-3-carboxamide], the IC50 is not above 100 nM.

In turn, `O=C(Nc1cc(-c2cc(OCC3CCOCC3)ccc2C(F)(F)F)ccn1)c1nnc(CC2CCCCC2)[nH]1` [Example 304, 5-(cyclohexylmethyl)-N-(4-(5-((tetrahydro-2H-pyran-4-yl)methoxy)-2-(trifluoromethyl)phenyl)pyridin-2-yl)-4H-1,2,4-triazole-3-carboxamide] registered an IC50 not above 100 nM.

As to `O=C(Nc1cc(-c2cc(OCCC3CCOCC3)ccc2C(F)(F)F)ccn1)c1nnc(Cc2ccccc2)[nH]1` [Example 305, 5-benzyl-N-(4-(5-(2-(tetrahydro-2H-pyran-4-yl)ethoxy)-2-(trifluoromethyl)phenyl)pyridin-2-yl)-4H-1,2,4-triazole-3-carboxamide], the IC50 was not above 100 nM.

The compound `O=C(Nc1cc(-c2cc(OCCC3CCOCC3)ccc2C(F)(F)F)ccn1)c1nnc(Cc2ccccc2F)[nH]1` [Example 306, 5-(2-fluorobenzyl)-N-(4-(5-(2-(tetrahydro-2H-pyran-4-yl)ethoxy)-2-(trifluoromethyl)phenyl)pyridin-2-yl)-4H-1,2,4-triazole-3-carboxamide] registered an IC50 not above 100 nM.

In the case of `O=C(Nc1cc(-c2cc(OCCC3CCOCC3)ccc2C(F)(F)F)ccn1)c1nnc(Cc2cccc(F)c2)[nH]1` [Example 307, 5-(3-fluorobenzyl)-N-(4-(5-(2-(tetrahydro-2H-pyran-4-yl)ethoxy)-2-(trifluoromethyl)phenyl)pyridin-2-yl)-4H-1,2,4-triazole-3-carboxamide], the IC50 is not above 100 nM.

With `O=C(Nc1cc(-c2cc(OCCC3CCOCC3)ccc2C(F)(F)F)ccn1)c1nnc(Cc2ccc(F)cc2)[nH]1` [Example 308, 5-(4-fluorobenzyl)-N-(4-(5-(2-(tetrahydro-2H-pyran-4-yl)ethoxy)-2-(trifluoromethyl)phenyl)pyridin-2-yl)-4H-1,2,4-triazole-3-carboxamide], the IC50 is not above 100 nM.

`O=C(Nc1cc(-c2cc(OCCC3CCOCC3)ccc2C(F)(F)F)ccn1)c1nnc(CC2CCCC2)[nH]1` [Example 309, 5-(cyclopentylmethyl)-N-(4-(5-(2-(tetrahydro-2H-pyran-4-yl)ethoxy)-2-(trifluoromethyl)phenyl)pyridin-2-yl)-4H-1,2,4-triazole-3-carboxamide] yielded an IC50 not above 100 nM.

`O=C(Nc1cc(-c2cc(OCCC3CCOCC3)ccc2C(F)(F)F)ccn1)c1nnc(CC2CCCCC2)[nH]1` [Example 310, 5-(cyclohexylmethyl)-N-(4-(5-(2-(tetrahydro-2H-pyran-4-yl)ethoxy)-2-(trifluoromethyl)phenyl)pyridin-2-yl)-4H-1,2,4-triazole-3-carboxamide]: the IC50 was not above 100 nM.

In the case of `C#Cc1ccc(OCCOC(C)(C)C)cc1-c1ccnc(NC(=O)c2nnc(Cc3ccccc3)[nH]2)c1` [Example 311, 5-benzyl-N-(4-(5-(2-(tert-butoxy)ethoxy)-2-ethynylphenyl)pyridin-2-yl)-4H-1,2,4-triazole-3-carboxamide], the IC50 lay within 100 to 1000 nM.

Compound `CC(C)(O)CCCOc1ccc(F)c(-c2ccnc(NC(=O)c3nnc(Cc4ccccc4)[nH]3)c2)c1` [Example 312, 5-benzyl-N-(4-(2-fluoro-5-((4-hydroxy-4-methylpentyl)oxy)phenyl)pyridin-2-yl)-4H-1,2,4-triazole-3-carboxamide] registered an IC50 of 100 to 1000 nM.

In turn, `CC(C)(O)CCCOc1ccc(F)c(-c2ccnc(NC(=O)c3nnc(Cc4ccccc4F)[nH]3)c2)c1` [Example 313, 5-(2-fluorobenzyl)-N-(4-(2-fluoro-5-((4-hydroxy-4-methylpentyl)oxy)phenyl)pyridin-2-yl)-4H-1,2,4-triazole-3-carboxamide] came in with an IC50 of 100 to 1000 nM.

`CCC(O)(CC)CCCOc1ccc(F)c(-c2ccnc(NC(=O)c3nnc(Cc4ccccc4F)[nH]3)c2)c1` [Example 314, N-(4-(5-((4-ethyl-4-hydroxyhexyl)oxy)-2-fluorophenyl)pyridin-2-yl)-5-(2-fluorobenzyl)-4H-1,2,4-triazole-3-carboxamide] returned an IC50 of 100 to 1000 nM.

The compound `O=C(Nc1cc(-c2cc(OCC3CCOCC3)ccc2F)ccn1)c1nnc(Cc2ccccc2F)[nH]1` [Example 315, 5-(2-fluorobenzyl)-N-(4-(2-fluoro-5-((tetrahydro-2H-pyran-4-yl)methoxy)phenyl)pyridin-2-yl)-4H-1,2,4-triazole-3-carboxamide] yielded an IC50 of 100 to 1000 nM.

Consider `O=C(Nc1cc(-c2cc(OCCC3CCOCC3)ccc2F)ccn1)c1nnc(Cc2ccccc2F)[nH]1` [Example 316, N-(4-(2-fluoro-5-(2-(tetrahydro-2H-pyran-4-yl)ethoxy)phenyl)pyridin-2-yl)-5-(2-fluorobenzyl)-4H-1,2,4-triazole-3-carboxamide], for which the concentration for half-maximal inhibition (IC50) was 100 to 1000 nM.

The compound `O=C(Nc1cc(-c2cc(OCCC3CCOCC3)ccc2F)ccn1)c1nnc(CC2CCCCC2)[nH]1` [Example 317, 5-(cyclohexylmethyl)-N-(4-(2-fluoro-5-(2-(tetrahydro-2H-pyran-4-yl)ethoxy)phenyl)pyridin-2-yl)-4H-1,2,4-triazole-3-carboxamide] had an IC50 not above 100 nM.

With `CC(C)(O)CCCOc1ccc(F)c(-c2cc(NC(=O)c3nnc(Cc4ccccc4F)[nH]3)ncc2F)c1` [Example 318, N-(5-fluoro-4-(2-fluoro-5-((4-hydroxy-4-methylpentyl)oxy)phenyl)pyridin-2-yl)-5-(2-fluorobenzyl)-4H-1,2,4-triazole-3-carboxamide], the IC50 was not above 100 nM.

As for `CC(C)(O)CCCOc1ccc(F)c(-c2cc(NC(=O)c3nnc(CC4CCCCC4)[nH]3)ncc2F)c1` [Example 319, 5-(cyclohexylmethyl)-N-(5-fluoro-4-(2-fluoro-5-((4-hydroxy-4-methylpentyl)oxy)phenyl)pyridin-2-yl)-4H-1,2,4-triazole-3-carboxamide], the IC50 is not above 100 nM.

Values taken from patent US12435060B2, “Acylamino bridged heterocyclic compound, and composition and application thereof” (BEIJING SCITECH-MQ PHARMACEUTICALS LIMITED, priority 2019, dated 2025).
